According to BindingDB's records for doi:10.1016/j.bmc.2018.03.016 (University of Lille, 2018):

Assay: Modulation of human wild-type APP695 expressed in SH-SY5Y cells assessed as inhibition of amyloid beta (1 to 42 residues) production measured after 24 hrs by ELISA

SMILES	IC50 [µM]
c1ccc(Nc2cc(CNCCN3CCCCC3)cc(CNCCN3CCCCC3)c2)c(CN2CCCCC2)c1	6
O=C(NCCN1CCCCC1)c1cc(C(=O)NCCN2CCCCC2)cc(-c2ccccc2CN2CCCCC2)c1	9.4
CCN(CC)Cc1cccc(Nc2ccnc3cc(Cl)ccc23)c1	10.4
CN(C)Cc1ccccc1Nc1cc(C(=O)NCCN2CCCCC2)cc(C(=O)NCCN2CCCCC2)c1	> 10
Clc1ccc2c(Nc3cc(CN4CCOCC4)cc(NCCN4CCCCC4)c3)ccnc2c1	4.9
CCN(CC)Cc1cc(NC(=O)CN2CCCCC2)cc(Nc2ccnc3cc(Cl)ccc23)c1	2.8
CCN(CC)Cc1cc(NCCN2CCCCC2)cc(Nc2ccnc3cc(Cl)ccc23)c1	13.8
CN(C)CCN(C)Cc1cc(NC(=O)CN2CCCCC2)cc(Nc2ccnc3cc(Cl)ccc23)c1	2.9
O=C(NCCN1CCCCC1)c1cc(Nc2ccccc2CN2CCCCC2)cc(C(=O)NCCN2CCCCC2)c1	4.7
c1ccc(Nc2cc(CNCCN3CCCCC3)cc(CNCCN3CCCCC3)c2)c(CN2CCOCC2)c1	7.9
CN1CCN(c2cc(Nc3ccnc4cc(Cl)ccc34)cc(N3CCN(C)CC3)c2)CC1	1.9
Oc1c(CN2CCCC2)cc(Nc2ccnc3cc(Cl)ccc23)cc1CN1CCCC1	11.2
O=C(CN1CCCCC1)Nc1cc(CN2CCOCC2)cc(Nc2ccnc3cc(Cl)ccc23)c1	7.1
CCN(CC)Cc1cc(Nc2ccnc3cc(Cl)ccc23)ccc1O [Amodiaquin]	5.4
CCN(CC)CCC[C@@H](C)Nc1ccnc2cc(Cl)ccc12 [Aralen]	12.8
